# Measurements as given in ChEMBL document CHEMBL5131471, “Design, synthesis and mechanism studies of novel dual PARP1/BRD4 inhibitors against pancreatic cancer” (Eur J Med Chem, 2022).
# The source made the active and inactive calls. The calls are words filed in the database; no cut-off is given here.
# What was measured:
# SW1990 [1] = assay: Induction of DNA damage in human SW1990 cells assessed as increase in gammaH2AX expression at 6 uM incubated for 4 days by DAPI staining based laser confocal microscopic analysis; assay type: functional, cell-based; conditions: time 4.0 day
# SW1990 [2] = assay: Effect on TOPBP1 gene expression in human SW1990 cells at 6 uM by Q-PCR analysis; assay type: functional, cell-based
# SW1990 [3] = assay: Upregulation of CCND1 expression in human SW1990 cells at 6 uM measured after 4 days by Western blot analysis; assay type: functional, cell-based; conditions: time 4.0 day
# SW1990 [4] = assay: Induction of DNA damage in human SW1990 cells assessed as increase in tail DNA at 6 uM incubated for 4 days by comet assay; assay type: functional, cell-based; conditions: time 4.0 day
# SW1990 [5] = assay: Effect on CCND1 gene expression in human SW1990 cells at 6 uM by Q-PCR analysis; assay type: functional, cell-based
# SW1990 [6] = assay: Effect on CDK6 gene expression in human SW1990 cells at 6 uM by Q-PCR analysis; assay type: functional, cell-based
# Mus musculus [7] = assay: Upregulation of E2F2 expression in nude mouse xenografted with human SW1990 cells at 45 mg/kg, ip measured after 4 days by Q-PCR analysis; assay type: functional, organism-based; conditions: time 4.0 day
# Mus musculus [8] = assay: Upregulation of […] expression in nude mouse xenografted with human SW1990 cells at 45 mg/kg, ip measured after 28 days by DAPI staining based laser confocal microscopic analysis; assay type: functional, organism-based; conditions: time 28.0 day
# Mus musculus [9] = assay: Upregulation of CDK6 expression in nude mouse xenografted with human SW1990 cells at 45 mg/kg, ip measured after 4 days by Q-PCR analysis; assay type: functional, organism-based; conditions: time 4.0 day
# SW1990 [10] = assay: Effect on CDC25A gene expression in human SW1990 cells at 6 uM by Q-PCR analysis; assay type: functional, cell-based
# SW1990 [11] = assay: Upregulation of CDK6 expression in human SW1990 cells at 6 uM measured after 4 days by Western blot analysis; assay type: functional, cell-based; conditions: time 4.0 day
# SW1990 [12] = assay: Induction of BRCA1 accumulation in nucleus of human SW1990 cells at 6 uM measured after 4 days by Western blot analysis; assay type: functional, cell-based; conditions: time 4.0 day
# SW1990 [13] = assay: Upregulation of Rad51 expression in human SW1990 cells at 6 uM measured after 4 days by Western blot analysis; assay type: functional, cell-based; conditions: time 4.0 day
# SW1990 [14] = assay: Induction of apoptosis in human SW1990 cells assessed as necrotic cells at 2 uM measured after 4 days by Annexin V-FITC and propidium iodide staining based flow cytometry (reference value: 2.45%); assay type: functional; conditions: time 4 day
# Mus musculus [15] = assay: Inhibition of homologous recombinant repair in nude mouse xenografted with human SW1990 cells assessed as reversal of olaparib-induced BRCA2 expression at 30 mg/kg, ip after 4 days by Western blot analysis; assay type: functional, organism-based; conditions: time 4.0 day
# [16] = Toxicity in nude mouse xenografted with human SW1990 cells assessed as heart damage at 30 mg/kg, ip administered for 28 days by H and E staining based fluorescence microscopic analysis; assay type: organism-based; conditions: in vivo, 672 h, time 28 day
# SW1990 [17] = assay: Inhibition of homologous recombinant repair in human SW1990 cells assessed as reversal of Olaparib-induced HEXIM1 expression at 1 to 2 uM after 4 days by Western blot analysis; assay type: functional, cell-based; conditions: dose 1-2 µM, time 4.0 day
# SW1990 [18] = assay: Induction of apoptosis in human SW1990 cells assessed as early apoptotic cells at 1 uM measured after 4 days by Annexin V-FITC and propidium iodide staining based flow cytometry (reference value: 1.62%); assay type: functional; conditions: time 4 day
# Mus musculus [19] = assay: Inhibition of CDC25B expression in nude mouse xenografted with human SW1990 cells at 30 mg/kg, ip measured after 4 days by Western blot analysis; assay type: functional, organism-based; conditions: time 4.0 day
# SW1990 [20] = assay: Effect on CDK1 to 2 gene expression in human SW1990 cells at 1 to 2 uM by Q-PCR analysis; assay type: functional, cell-based; conditions: dose 1-2 µM
# Mus musculus [21] = assay: Inhibition of CDC25B expression in nude mouse xenografted with human SW1990 cells at 30 mg/kg, ip measured after 4 days by Q-PCR analysis; assay type: functional, organism-based; conditions: time 4.0 day
# SW1990 [22] = assay: Effect on HEXIM1 gene expression in human SW1990 cells at 1 to 2 uM by Q-PCR analysis; assay type: functional, cell-based; conditions: dose 1-2 µM
# Mus musculus [23] = assay: Inhibition of BRD4 expression in nude mouse xenografted with human SW1900 cells at 30 mg/kg, ip administered for 28 days by DAPI staining based laser confocal microscopic analysis; assay type: functional, organism-based; conditions: time 28.0 day
# Mus musculus [24] = assay: Inhibition of BRD4 expression in nude mouse xenografted with human SW1900 cells at 30 mg/kg, ip administered for 28 days by Q-PCR analysis; assay type: functional, organism-based; conditions: time 28.0 day
# SW1990 [25] = assay: Induction of cell cycle arrest in human SW1990 cells assessed as accumulation of cells at G2/M phase at 1 uM incubated for 4 days by propidium iodide staining based flow cytometry (reference value: 5.89%); assay type: functional; conditions: time 4 day
# Mus musculus [26] = assay: Induction of DNA damage in nude mouse xenografted with human SW1990 cells assessed as increase in gammaH2AX expression at 30 mg/kg, ip incubated for 4 days by DAPI staining based laser confocal microscopic analysis; assay type: functional, organism-based; conditions: time 4.0 day
# SW1990 [27] = assay: Antitumor activity against human SW1990 cells xenografted in nude mouse assessed as reduction in tumor weight at 30 mg/kg, ip administered for 28 days and measured every 3 days by vernier caliper method; assay type: functional, organism-based; conditions: time 28.0 day
# SW1990 [28] = assay: Inhibition of homologous recombinant repair in human SW1990 cells assessed as reversal of Olaparib-induced c-Myc expression at 1 to 2 uM after 4 days by Western blot analysis; assay type: functional, cell-based; conditions: dose 1-2 µM, time 4.0 day
# SW1990 [29] = assay: Effect on CDC25B gene expression in human SW1990 cells at 1 to 2 uM by Q-PCR analysis; assay type: functional, cell-based; conditions: dose 1-2 µM
# SW1990 [30] = assay: Inhibition of CDK6 protein expression in human SW1990 cells at 1 to 2 uM measured after 4 days by Western blot analysis; assay type: functional, cell-based; conditions: dose 1-2 µM, time 4.0 day
# SW1990 [31] = assay: Induction of cell cycle arrest in human SW1990 cells assessed as accumulation of cells at S phase at 1 uM incubated for 4 days in presence of 3 uM Olaparib by propidium iodide staining based flow cytometry (reference value: 29.32%); assay type: functional; conditions: time 4 day
# SW1990 [32] = assay: Effect on CCNB1 gene expression in human SW1990 cells at 1 uM in presence of Olaparib by Q-PCR analysis; assay type: functional, cell-based
# SW1990 [33] = assay: Effect on CDC25B gene expression in human SW1990 cells at 4 uM by Q-PCR analysis; assay type: functional, cell-based
# SW1990 [34] = assay: Effect on Rad51 gene expression in human SW1990 cells at 4 uM by Q-PCR analysis; assay type: functional, cell-based
# SW1990 [35] = assay: Effect on BRCA2 gene expression in human SW1990 cells at 4 uM by Q-PCR analysis; assay type: functional, cell-based
# SW1990 [36] = assay: Induction of apoptosis in human SW1990 cells assessed as necrotic cells at 1 uM measured after 4 days in presence of 3 uM Olaparib by Annexin V-FITC and propidium iodide staining based flow cytometry (reference value: 2.45%); assay type: functional; conditions: time 4 day
# SW1990 [37] = assay: Effect on CDC25A gene expression in human SW1990 cells at 4 uM by Q-PCR analysis; assay type: functional, cell-based
# SW1990 [38] = assay: Effect on ALDH1A1 gene expression in human SW1990 cells at 4 uM by Q-PCR analysis; assay type: functional, cell-based
# SW1990 [39] = assay: Effect on CDK1 gene expression in human SW1990 cells at 4 uM by Q-PCR analysis; assay type: functional, cell-based
# SW1990 [40] = assay: Effect on HEXIM1 gene expression in human SW1990 cells at 4 uM by Q-PCR analysis; assay type: functional, cell-based
smiles,measurement,setting,value
O=C(c1cc(Cc2n[nH]c(=O)c3ccccc23)ccc1F)N1CCN(C(=O)C2CC2)CC1 [OLAPARIB],Activity,SW1990 [1],Active
same,Activity,SW1990 [2],Active
same,Activity,SW1990 [3],Active
same,Activity,SW1990 [4],Active
same,Activity,SW1990 [5],Active
same,Activity,SW1990 [6],Active
same,Activity,Mus musculus [7],Active
same,Activity,Mus musculus [8],Active
same,Activity,Mus musculus [9],Active
same,Activity,SW1990 [10],Active
same,Activity,SW1990 [11],Active
same,Activity,SW1990 [12],Active
same,Activity,SW1990 [13],Active
Cc1noc(C)c1-c1ccc2c(c1)C(c1ccccc1)N(Cc1nc3c(C(N)=O)cccc3[nH]1)C(=O)N2C (stereo not given),Activity,SW1990 [14],3.52%
same,inhibition,Mus musculus [15],Active
same,Activity,[16],Non-Toxic
same,inhibition,SW1990 [17],Active
same,Activity,SW1990 [18],3.02%
same,inhibition,Mus musculus [19],Active
same,Activity,SW1990 [20],Active
same,inhibition,Mus musculus [21],Active
same,Activity,SW1990 [22],Active
same,inhibition,Mus musculus [23],Active
same,inhibition,Mus musculus [24],Active
same,Activity,SW1990 [25],10.13%
same,Activity,Mus musculus [26],Active
same,Activity,SW1990 [27],Active
same,inhibition,SW1990 [28],Active
same,Activity,SW1990 [29],Active
same,inhibition,SW1990 [30],Active
Cc1sc2c(c1C)C(c1ccc(Cl)cc1)=N[C@@H](CC(=O)OC(C)(C)C)c1nnc(C)n1-2,Activity,SW1990 [31],19.33%
same,Activity,SW1990 [32],Active
same,Activity,SW1990 [33],Active
same,Activity,SW1990 [34],Active
same,Activity,SW1990 [35],Active
same,Activity,SW1990 [36],5.76%
same,Activity,SW1990 [37],Active
same,Activity,SW1990 [38],Active
same,Activity,SW1990 [39],Active
same,Activity,SW1990 [40],Active
